Results on six compounds are retold here after ChEMBL document CHEMBL3808392, “Design, synthesis and biological evaluation of 5-fluorouracil-derived benzimidazoles as novel type of potential antimicrobial agents” (2016).

For assay [1], the system named is Staphylococcus aureus. Briefly: Antimicrobial activity against methicillin-resistant Staphylococcus aureus N315 after 24 hrs by microbroth dilution method. The class given is functional. To be noted: N315, 24 h. Background: Broth dilution looks for growth in wells or tubes with falling amounts of substance.
The subject of assay [2] is Staphylococcus aureus. The assay can be described thus: Antimicrobial activity against Staphylococcus aureus ATCC 25923 after 24 hrs by microbroth dilution method. The class given is functional. To be noted: ATCC 25923, 24 h.
In assay [3] the test system is Bacillus spizizenii. Briefly: Antimicrobial activity against Bacillus subtilis ATCC 6633 after 24 hrs by microbroth dilution method. The class given is functional. To be noted: ATCC 6633, 24 h.
The subject of assay [4] is Micrococcus luteus. Briefly: Antimicrobial activity against Micrococcus luteus ATCC 4698 after 24 hrs by microbroth dilution method. The class given is functional. To be noted: ATCC 4698, 24 h.
The subject of assay [5] is Escherichia coli. The assay can be described thus: Antimicrobial activity against Escherichia coli DH52 after 24 hrs by microbroth dilution method. The class given is functional. As to conditions: DH52, 24 h.
The test system of assay [6] is Escherichia coli. Briefly: Antimicrobial activity against Escherichia coli JM109 after 24 hrs by microbroth dilution method. The class given is functional. To be noted: JM109, 24 h.
Assay [7] is described as follows: Antimicrobial activity against Bacillus proteus ATCC 13315 after 24 hrs by microbroth dilution method. The class given is functional. To be noted: ATCC 13315, 24 h.
For assay [8], the system named is Salmonella typhi. The assay can be described thus: Antimicrobial activity against Bacillus typhi after 24 hrs by microbroth dilution method. The class given is functional, Salmonella enterica subsp. enterica serovar Typhi. As to conditions: Salmonella enterica.
Assay [9] relates to Candida albicans. Briefly: Antimicrobial activity against Candida albicans ATCC 10231 after 24 hrs by microbroth dilution method. The class given is functional. To be noted: ATCC 10231, 24 h.
The subject of assay [10] is Candida. Briefly: Antimicrobial activity against Candida mycoderma ATCC 9888 after 24 hrs by microbroth dilution method. The class given is functional. As to conditions: ATCC 9888, 24 h.
Assay [11] concerns Saccharomyces cerevisiae. Briefly: Antimicrobial activity against Saccharomyces cerevisiae after 24 hrs by microbroth dilution method. The class given is functional.
Assay [12] relates to Aspergillus flavus. Briefly: Antimicrobial activity against Aspergillus flavus ATCC 204304 after 24 hrs by microbroth dilution method. The class given is functional. To be noted: ATCC 204304, 24 h.
Assay [13] concerns Bacillus. The assay can be described thus: Potency index, ratio of norfloxacin MIC to compound MIC for antimicrobial activity against Bacillus proteus ATCC 13315. The class given is functional.
Assay [14] relates to Saccharomyces cerevisiae. The assay can be described thus: Potency index, ratio of fluconazole MIC to compound MIC for antimicrobial activity against Saccharomyces cerevisiae. The class given is functional.
Assay [15] has as its system Staphylococcus aureus. Briefly: Potency index, ratio of norfloxacin MIC to compound MIC for antimicrobial activity against methicillin-resistant Staphylococcus aureus N315. The class given is functional.
Assay [16] concerns Staphylococcus aureus. Briefly: Potency index, ratio of chloromycin MIC to compound MIC for antimicrobial activity against methicillin-resistant Staphylococcus aureus N315. The class given is functional.
The subject of assay [17] is Calf thymus DNA. The assay can be described thus: Binding affinity to calf thymus DNA assessed as compound-DNA complex formation by UV-visible spectroscopy. The class given is nucleic-acid assay. As to conditions: Bos taurus.
Assay [18] relates to Calf thymus DNA. Briefly: Competitive binding affinity to calf thymus DNA assessed as compound-DNA complex formation at 0.74 to 2.18x10'-5 mol/l by UV-visible spectroscopy in presence of neutral red dye. The class given is nucleic-acid assay. To be noted: Bos taurus.
The subject of assay [19] is Calf thymus DNA. Briefly: Binding affinity to calf thymus DNA assessed as compound-DNA complex formation at 4.87x10'-5 mol/l by fluorescence analysis. The class given is nucleic-acid assay. As to conditions: Bos taurus.
In assay [20] the test system is Calf thymus DNA. The assay can be described thus: Binding affinity to calf thymus DNA assessed as compound-DNA complex formation by fluorescence analysis in presence of quencher potassium iodide. The class given is nucleic-acid assay. As to conditions: Bos taurus.
Assay [21] concerns Escherichia coli. Briefly: Potency index, ratio of chloromycin MIC to compound MIC for antimicrobial activity against Escherichia coli DH52. The class given is functional.

≈ marks a conversion by molar mass, not a printed value. Calls of active or inactive are those of the source. The rule behind the calls is not given here.

Regarding `O=c1[nH]c(=O)n(Cc2nc3ccccc3n2Cc2cccc(F)c2)cc1F`, the MIC in assay [1] stood at 64 µg/mL (≈ 174 µM); in assay [2] it was 4 µg/mL (≈ 10.9 µM); in assay [3], 8 µg/mL (≈ 21.7 µM); in assay [4], 16 µg/mL (≈ 43.4 µM); in assay [5], 2 µg/mL (≈ 5.43 µM); in [6] it was 64 µg/mL (≈ 174 µM). The MIC was determined as 2 µg/mL (≈ 5.43 µM) in [7]; 128 µg/mL (≈ 348 µM) in [8]; 16 µg/mL (≈ 43.4 µM) in assay [9]; 16 µg/mL (≈ 43.4 µM) in [10]; 4 µg/mL (≈ 10.9 µM) in assay [11]; 32 µg/mL (≈ 86.9 µM) in assay [12]. Also, the Ratio in assay [13] came out at 4.

For `O=c1c(F)cn(Cc2nc3ccccc3n2Cc2cccc(F)c2)c(=O)n1Cc1cccc(F)c1`, the MIC in [1] was 2 µg/mL (≈ 4.2 µM); in assay [2], 4 µg/mL (≈ 8.4 µM); in assay [3], 16 µg/mL (≈ 33.6 µM); in assay [4], 64 µg/mL (≈ 134 µM); in [5], 2 µg/mL (≈ 4.2 µM); in assay [6], 8 µg/mL (≈ 16.8 µM). Also, the minimum inhibitory concentration (MIC) in assay [7] was 4 µg/mL (≈ 8.4 µM); in assay [8], 8 µg/mL (≈ 16.8 µM); in assay [9], 32 µg/mL (≈ 67.2 µM); in assay [10], 32 µg/mL (≈ 67.2 µM); in assay [11] it was 1 µg/mL (≈ 2.1 µM); in assay [12], 8 µg/mL (≈ 16.8 µM). Also, the Ratio in assay [14] amounted to 16; in assay [15] it was 4; in [16] it was 8. Moreover, the K in assay [17] was 3.89 ×10⁴ L/mol. The outcome in assay [18] and in assay [19] was Active. In assay [20], the KSV is 6.45 L/mol.

Take `CCn1c(Cn2cc(F)c(=O)[nH]c2=O)nc2ccccc21`: the MIC worked out at 16 µg/mL (≈ 55.5 µM) in assay [1]; 16 µg/mL (≈ 55.5 µM) in assay [2]; 64 µg/mL (≈ 222 µM) in assay [3]; 16 µg/mL (≈ 55.5 µM) in assay [4]; 8 µg/mL (≈ 27.8 µM) in assay [5]; 64 µg/mL (≈ 222 µM) in assay [6]. Besides, the minimal inhibitory concentration (MIC) in [7] worked out at 32 µg/mL (≈ 111 µM); in [8], 32 µg/mL (≈ 111 µM); in assay [9], 2 µg/mL (≈ 6.94 µM); in assay [10], 16 µg/mL (≈ 55.5 µM); in assay [11], 4 µg/mL (≈ 13.9 µM); in assay [12], 32 µg/mL (≈ 111 µM). The Ratio in [21] is recorded as 4.

For `CCCCCCCCCCCCn1c(Cn2cc(F)c(=O)[nH]c2=O)nc2ccccc21`, the MIC in [1], in assay [2], in [3], in assay [4], in assay [5] and in [6] was more than 512 µg/mL in each case. In addition, the MIC was more than 512 µg/mL in assay [7]; more than 512 µg/mL in assay [8]; more than 512 µg/mL in [9]; 512 µg/mL (≈ 1190 µM) in assay [10]; 64 µg/mL (≈ 149 µM) in [11]; more than 512 µg/mL in assay [12].

For the compound `CCn1c(=O)c(F)cn(Cc2nc3ccccc3n2CC)c1=O`, the minimum inhibitory concentration (MIC) in [1] amounted to 64 µg/mL (≈ 202 µM); in assay [2] it was 32 µg/mL (≈ 101 µM); in assay [3], 32 µg/mL (≈ 101 µM); in assay [4], 32 µg/mL (≈ 101 µM); in assay [5], 32 µg/mL (≈ 101 µM); in assay [6] it was 16 µg/mL (≈ 50.6 µM). In addition, the MIC in [7] was determined as 32 µg/mL (≈ 101 µM); in [8] it was 64 µg/mL (≈ 202 µM); in [9] it was 64 µg/mL (≈ 202 µM); in assay [10], 32 µg/mL (≈ 101 µM); in assay [11] it was 32 µg/mL (≈ 101 µM); in [12], 64 µg/mL (≈ 202 µM).

Consider `O=c1c(F)cn(Cc2nc3ccccc3n2Cc2cccc(Cl)c2)c(=O)n1Cc1cccc(Cl)c1`, for which the MIC was found to be 128 µg/mL (≈ 251 µM) in [1]; 512 µg/mL (≈ 1010 µM) in assay [2]; 64 µg/mL (≈ 126 µM) in [3]; 128 µg/mL (≈ 251 µM) in assay [4]; 16 µg/mL (≈ 31.4 µM) in [5]; 128 µg/mL (≈ 251 µM) in assay [6]. Moreover, the MIC in assay [7], in assay [8], in [9], in assay [10], in assay [11] and in assay [12] was 64 µg/mL (≈ 126 µM) each time.

One may read the MIC as the lowest concentration that inhibits growth of the organism. A high value points to weaker potency.
